Experimental data as given in patent US9403806B1, “Cognition enhancing compounds and compositions, methods of making, and methods of treating” (NeuroSolis, Inc., priority 2010, dated 2016).
Read-outs that look alike come from different tables or passages of the source.

Experiments:
[1] = system: muscarinic M3 receptors in the salivary glands; assay: In vivo inositol phosphate increase in salivary glands, Example 44; set-up: species or system Long Evans Hooded rats; conditions: rat, 3 mg/kg sc, 5 mmole/kg LiCl
Experimental: (§1) In lithium chloride-treated laboratory rodents, engagement of muscarinic M1 receptors in the hippocampus may usefully be evaluated in vivo by measuring the increase in the tissue of inositol phosphate (Bymaster F P et al Brain Res 795 (1998) 179-190). This may also be extended to measure engagement of muscaric M3 receptors in the salivary glands.
(§2) Experimental compounds were administered subcutaneously at 3 mg/kg using standard techniques to Long Evans Hooded rats weighing 225 to 350 g, and which had been pretreated with a subcutaneous injection of lithium chloride at a suitable dose between 3 and 5 mmole/kg. At suitable times the animals were briefly anesthetized using 5% isoflurane and euthanized by decapitation. The brains and submaxillary salivary glands were rapidly dissected out, and the hippocampuses were dissected from the brains. The dissected tissues were homogenized in a suitable volume of ice-cold phosphate-buffered saline containing 10 mM lithium chloride (pH=7.4) using a tissue homogenizer, and used immediately or frozen in aliquots at −80° C. for future use. The concentration of inositol-1-phosphate was determined in the homogenates using the […] IP-One Terbium TR-FRET assay kit (Cisbio Bioassays, cat. #62IPAPEJ) according to the manufacturer's instructions.

in vitro = in vitro ADME; conditions: pH 7.4, 24 hours, room temperature; for Papp at 24 h, 400 µM: PAMPA, pH 7.4, 400 μM, read-out: PAMPA Permeability Coefficient (×10^6)
Experimental: PAMPA is a useful in vitro model for predicting the passive diffusion of drugs across the blood-brain barrier (Li, D et al Eur jour of Med Chem 38 (2003) 223-232).
Compounds were diluted in a 100 mM phosphate buffer (pH 7.4) to a concentration of 400 μM and the stock solutions were placed into a 96-well filter plate (Millipore, #MAIPN4510) pre-wetted with 20 mg/mL porcine brain polar lipid extract in 100% dodecane (Avanti, #131022) and placed into a 96-well acceptor plate (Millipore, #MSSACCEPTOR) whose wells were filled with the same phosphate buffer as in the filter plate. This assembly was incubated at room temperature for 24 hours. The experiment was halted by separating the filter plate from the acceptor plate. Aliquots were removed from the filter plate wells, acceptor plate wells, and stock solutions, and 1% trifluoroacetic acid was added to each. All solutions were measured by LC/UV, and passive diffusion rates were calculated using the peak area values (Avdeef, Alex. 2003. Page 147 in Absorption and Drug Development. Hoboken, N.J.: John Wiley & Sons).

[2] = Blood and brain concentrations (rats), tail vein injection; type: in vivo, Long-Evans Hooded rats; conditions: rat, 3 mg/kg tail vein injection; for half-life: male, Long-Evans Hooded, plasma, iv, 3 mg/kg, read-out: Plasma Terminal Half-life (converted)
[3] = target: T1, human muscarinic M3 receptors (Homo sapiens, UniProt P20309); type: cell-based; conditions: for huM3/A9L Smax: percentage of maximal stimulation by carbachol; for huM3/A9L Potency relative to carbachol: relative to the potency of carbachol at its EC50
T1 construct: host or cells: A9L cells
Experimental: (§3) Muscarinic M1 and M3 agonist activity was evaluated by measuring the stimulation of inositol phosphate (IP) production in the presence of lithium chloride from A9L cells transfected with expression plasmids containing human muscarinic M1 and M3 receptors, respectively. The cell lines were a gift from Professor William Messer, and the methods were as described in Tejada et al. (J. Med. Chem. 2006; 49: 7518-31) except that the assay was scaled down to run in 384-well plates and the concentration of inositol-1-phosphate in the lysates was determined using the non-isotopic IP-One Terbium TR-FRET assay kit (Cisbio Bioassays, cat. #62IPAPEJ) according to the manufacturer's instructions.
(§4) Cells were grown to 90% confluence in 384-well high-base, small-volume plates (Greiner Bio-One), compounds were added at suitable concentrations in growth medium containing 10 mM LiCl, buffered with an extra 10 mM HEPES (pH=7.4), and incubated for 60 minutes at 37° C. Cells were lysed and assayed for IP following the manufacturer's instructions.
(§5) The value for a full agonist is 100%, while partial agonists give values below 100%.

[4] = target: T2, human muscarinic M1 receptors (Homo sapiens, UniProt P11229); type: cell-based; conditions: for huM1/A9L Smax: percentage of maximal stimulation by carbachol; for huM1/A9L Potency relative to carbachol: relative to the potency of carbachol at its EC50
T2 construct: host or cells: A9L cells
T2 sequence (P11229 1-460): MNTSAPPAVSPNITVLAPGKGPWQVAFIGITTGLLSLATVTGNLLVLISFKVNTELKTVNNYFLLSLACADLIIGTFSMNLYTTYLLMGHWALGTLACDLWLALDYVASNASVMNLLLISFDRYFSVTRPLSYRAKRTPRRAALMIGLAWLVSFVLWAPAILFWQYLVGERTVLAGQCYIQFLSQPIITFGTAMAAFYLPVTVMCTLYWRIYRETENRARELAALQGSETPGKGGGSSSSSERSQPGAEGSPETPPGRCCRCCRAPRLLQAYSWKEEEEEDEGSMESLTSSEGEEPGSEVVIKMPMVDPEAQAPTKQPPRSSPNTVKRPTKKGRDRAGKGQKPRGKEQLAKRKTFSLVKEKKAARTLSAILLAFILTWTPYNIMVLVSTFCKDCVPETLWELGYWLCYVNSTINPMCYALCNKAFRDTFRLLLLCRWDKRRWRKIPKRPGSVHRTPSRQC
Experimental: as §3, §4, §5

[5] = system: muscarinic M1 receptors in the hippocampus; assay: In vivo inositol phosphate increase in hippocampus, Example 44; set-up: species or system Long Evans Hooded rats; conditions: rat, 3 mg/kg sc, 5 mmole/kg LiCl
Experimental: as §1, §2

[6] = Blood and brain concentrations (rats), tail vein injection; type: in vivo, Long-Evans Hooded rats; conditions: rat; for Kp at 1 h: brain and plasma, intravenous, Table 114, read-out: Brain/Plasma Ratio
Experimental: Long-Evans Hooded rats (Charles River: male, 230-300 g) were dosed with solutions of test compounds in PBS by tail vein injection. The dose for all compounds was 3 mg/kg. At one hour, the animals were anesthetized with isoflurane, and then euthanized by decapitation. Trunk blood was collected into a 1.5 mL microcentrifuge tube containing 15 U Heparin, and the plasma recovered after centrifugation. Brains were dissected, weighed, immediately chilled to 4° C., and homogenized using a PowerGen 125 homogenizer in five volumes of ice-cold 2% formic acid. Proteins were precipitated from plasma and brain homogenate with nine and five volumes respectively of ice-cold 2% formic acid and clarified by centrifugation. The supernatant was ultra-filtered by centrifugation through a 3K MWCO spin column (Pall Life Sciences), following the manufacturer's instructions. The concentration of compound in the ultra-filtrate was subjected to reverse-phase liquid chromatography using a 150×2.1 mm Agent C8 reverse-phase column on a Shimadzu Prominence LC, eluting the compounds with a gradient of 2% to 50% of acetonitrile+0.1% formic acid for all compounds. The concentration of the compound in the column effluent was measured using an Applied Biosystems API-3200 triple quadrupole mass spectrometer equipped with an electrospray sample injection system. The counts of the characteristic parent and product ions of each test compound were converted to concentration units by comparison with a standard curve.

[7] = system: pooled male human liver microsomes; assay: Metabolism in human liver microsomes, Example 45; type: in vitro ADME
Experimental: Aliquots were removed every 2 hours, and 1% formic acid was added to halt the reaction. Samples were centrifuged, filtered through 0.2 micron spinfilter, and the amount of each compound in the supernatants was quantitated using LC/MS/MS as follows. The ultra-filtrates were subjected to reverse-phase liquid chromatography using a 150×2.1 mm Agilent C8-reverse phase column on a Shimadzu Prominence LC, eluting the compound with a gradient of 2%-50% acetonitrile+0.1% formic acid over 5 minutes. The concentration of the compound in the column effluent was measured using an Applied Biosystems API-3200 triple quadrupole mass spectrometer equipped with a Turbo V source (electrospray sample injection) system. The counts of the characteristic parent ions of the protonated compound and product ions were converted to concentration by comparison with a standard calibration curve. The parent/daughter ion pairs that were monitored for each compound were: 166.0/82.0 (105), 166.0/82.0 (106b), 166.0/82.0 (106a), 169.0/83.0 (136), 168.2/83.0 (121), 168.1/83.0 (122a), 168.1/83.0 (122b), 170.2/83.0 (134), 168.2/84.1 (135), 168.1/84.1 (137) and 169.2/82.1 (138).

[8] = male, Long-Evans Hooded, 3 mg/kg
[9] = male, Long-Evans Hooded, in vivo, 3 mg/kg, 3 mg/kg tail vein injection, read-out: Brain Concentration at 1 hr
[10] = male, Long-Evans Hooded, in vivo, 3 mg/kg, 3 mg/kg tail vein injection, read-out: Plasma Concentration at 1 hr

T1 sequence (P20309 whole entry): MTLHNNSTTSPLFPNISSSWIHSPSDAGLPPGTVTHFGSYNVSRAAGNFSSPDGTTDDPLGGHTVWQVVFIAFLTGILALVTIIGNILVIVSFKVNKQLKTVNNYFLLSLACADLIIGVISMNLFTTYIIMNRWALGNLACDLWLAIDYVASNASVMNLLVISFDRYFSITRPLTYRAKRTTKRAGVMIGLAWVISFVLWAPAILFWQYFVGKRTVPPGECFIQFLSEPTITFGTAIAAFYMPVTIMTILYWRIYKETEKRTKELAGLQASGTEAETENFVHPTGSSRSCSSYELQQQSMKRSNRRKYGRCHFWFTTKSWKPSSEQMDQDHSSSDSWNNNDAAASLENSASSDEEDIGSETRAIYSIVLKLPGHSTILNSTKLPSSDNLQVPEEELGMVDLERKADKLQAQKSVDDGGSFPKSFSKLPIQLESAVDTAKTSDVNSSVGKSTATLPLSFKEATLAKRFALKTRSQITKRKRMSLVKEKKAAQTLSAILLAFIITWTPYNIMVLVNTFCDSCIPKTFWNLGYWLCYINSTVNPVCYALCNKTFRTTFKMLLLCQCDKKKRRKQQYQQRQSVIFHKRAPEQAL

Structure (SMILES)	Increase in Inositol Phosphate in Salivary Gland/Control ([1]; 3 mg/kg)	PAMPA Permeability Coefficient (×10^6) (in vitro; 400 μM)	Plasma Terminal Half-life [2]	huM3/A9L Smax [3]	huM3/A9L Potency relative to carbachol [3]	huM1/A9L Smax [4]	huM1/A9L Potency relative to carbachol [4]	Increase in Inositol Phosphate in Hippocampus/Control ([5]; 3 mg/kg)	Brain/plasma ratio ([6]; Table 114, 3 mg/kg)	Plasma Concentration at 1 hr ([6]; 3 mg/kg tail vein injection)	concentration at 1 h ([6]; 3 mg/kg tail vein injection, read-out: Brain Concentration at 1 hr)	Loss at 6 hrs (%) [7]	Increase in Inositol Phosphate in Salivary Gland/Control [1]	Papp at 24 h, 400 µM (in vitro)	half-life [2]	Increase in Inositol Phosphate in Hippocampus/Control [5]	Kp at 1 h [6, 8]	concentration at 1 h [6, 9]	concentration at 1 h [6, 10]
[2H]C([2H])([2H])c1noc(C23CNC([2H])([2H])C2C3)n1 (stereo not shown) [Compound 135, 5-(2,2-d2-3-azabicyclo[3.1.0]hexan-1-yl)-3-methyl-1,2,4-oxadiazole]	194%	5.40 ×10^6	1.0 h	46%	0.49	70%	1.39	614%	0.61	13.8 µM	7.7 µM	26%							
[2H]C1([2H])NCC2(c3nc(C)no3)CC12 (racemic) [Compound 121, 5-(4,4-d2-3-Azabicyclo[3.1.0]hexan-1-yl)-3-methyl-1,2,4-oxadiazole]				37%		73%						13%	239%	37.8 nm/s	1.26 h	795%	0.51	8.6 µM	16.8 µM
[2H]C1([2H])NC([2H])([2H])C2(c3nc(C)no3)CC12 (stereo not shown) [Compound 134, 5-(2,2,4,4-d4-3-Azabicyclo[3.1.0]hexan-1-yl)-3-methyl-1,2,4-oxadiazole]				41%	0.35	61%	1.17					10%	214%	34.6 nm/s	1.4 h	574%	0.65	8.4 µM	13.5 µM
